Results as given in patent US8785430B2, “Compound that can inhibit UBC13-UEV interactions, pharmaceutical compositions and therapeutic uses” (Consejo Superior de Investigaciones Cientificas, priority 2006, dated 2014).
Where two headings read alike, the source gives them in different places.

Legend:
HeLa cells = assay: CyQuant cell count, sensitization to etoposide; conditions: Homo sapiens, HeLa, 24 h, read-out: IC50 for etoposide
PC-3 cells = assay: CyQuant cell count, sensitization to doxorubicin; assay type: cell-based, human; conditions: Homo sapiens
Description: The addition of 100 μM of Ia reduced the IC50 of doxorubicin to 0.1 μM for PC-3 cells and the IC50 of etoposide to 0.04 μM for HeLa cells. Therefore, the treatment with 100 μM of compound Ia causes a sensitization to the cytotoxic effects of doxorubicin of 5 times (PC-3 cells) and a sensitization to the cytotoxic effects of etoposide of 30 times (HeLa cells).

PC-3.Sluc cells tumors = assay: PC-3.Sluc tumor xenografts in Balb/c nu/nu mice, light emission (RLUs); assay type: in vivo; conditions: doxorubicin alone i.v., 5 mg/Kg, once a week; 56 days
Description: For the purpose of determining if Varubin has an in vivo antitumor activity, its effects in mice having tumors formed from PC-3 cells were analyzed. The experimental tumors were formed by means of the intramuscular inoculation of PC-3.Sluc cells. The latter are PC-3 prostate cells in which they have been integrated by means of transfecting plasmid pRC/CMV-luc, which expresses the firefly (Photinus pyralis) luciferase gene in mammalian cells q. The incubation of the PC-3.luc cells with D-luciferin, a luciferase substrate, produces light, which can be quantified in an absolute manner (number of photons) either by means of a luminometer or by means of detection with a CCD (charge-coupled device) camera. The latter process further allows representing in real time images of the location of the tumor cells in the inoculated animals, as well as the tumor size, since the intensity of the light (number of photons) emitted in the presence of luciferin is directly proportional to the number of PC-3.luc cells.
For these studies, 24 male Balb/c nu/nu mice (Charles River Laboratories) of an age of 6 weeks were used. These animals were kept in a pathogen-free environment at all times, having been kept in the animal housing facility for 1 week after they were received, before the experimental handling. After being anesthetized by means of an intraperitoneal (i.p.) injection of a mixture at equal parts of 6 mg/Kg of droperidol (Roche, Basel, Switzerland) and 12 mg/Kg of midazolam (Rovi S.A, Madrid, Spain), intramuscular (i.m.) injections were performed both in the right leg and in the left leg of each animal of 1×10^6 PC-3.Sluc cells, suspended in 100 μL of fetal bovine serum-free culture medium. The development of tumors in the inoculation sites was allowed for 2 weeks, after which a first measurement of photons emitted was made and a first capture of images with an ORCA-2BT Imaging System instrument (Hammamatsu Photonics) provided with a C4742-98-LWG-MOD model CCD camera (cooled at −80° C.) was done at a resolution of 512×512 pixels. […] Four minutes later, photons were detected and quantified for 5 minutes in the instrument described above. […] The quantification and the analysis of photons were performed with the aid of the image analysis program WASABI (Hamamatsu Photonics). […] For the graphic representations, the quantitative data (RLUs) were standardized, for each tumor, in relation to the RLUs of day 0 of treatment.
The 24 mice, having luminescent tumors in both legs, were included in 4 experimental groups: (1) Control group, in which an intravenous (i.v.) injection of 100 μL of phosphate buffered saline pH 7.4 (PBS) and 50 μL of intratumoral (i.t.) PBS was performed. […] The light emission of the tumors was analyzed throughout 56 days from the start of the treatment.

Compound | IC50 (HeLa cells) [nM] | IC50 (PC-3 cells; 72 hours of treatment, doxorubicin alone, read-out: IC50 for doxorubicin) [nM] | IC50 (PC-3 cells; plus 100 μM of Ia, read-out: IC50 of doxorubicin with addition of Ia) [nM] | tumor growth (RLUs) (PC-3.Sluc cells tumors)
COc1cc([C@@H]2c3cc4c(cc3[C@@H](O[C@@H]3O[C@@H]5CO[C@@H](C)O[C@H]5[C@H](O)[C@H]3O)[C@H]3COC(=O)[C@H]23)OCO4)cc(OC)c1O [etoposide, reference compound] | ~1250 | – | – | –
COc1cccc2c1C(=O)c1c(O)c3c(c(O)c1C2=O)C[C@@](O)(C(=O)CO)C[C@@H]3O[C@H]1C[C@H](N)[C@H](O)[C@H](C)O1 [doxorubicin] | – | ~500 | 100 | hardly experienced growth
